Measured values as given in ChEMBL document CHEMBL1128981, “A comparison of steroidal and non-steroidal inhibitors of human steroid 5-reductase: New tricyclic aryl acid inhibitors of the type-1 isozyme” (Bioorg Med Chem Lett, 1996).

Experiments:
[1] = target: T1, 3-oxo-5-alpha-steroid 4-dehydrogenase 2 (Homo sapiens) (UniProt P31213); assay: Inhibitory activity against type-2 human steroid 5-alpha-reductase at a concentration of 2.5 uM
T1 sequence (whole entry): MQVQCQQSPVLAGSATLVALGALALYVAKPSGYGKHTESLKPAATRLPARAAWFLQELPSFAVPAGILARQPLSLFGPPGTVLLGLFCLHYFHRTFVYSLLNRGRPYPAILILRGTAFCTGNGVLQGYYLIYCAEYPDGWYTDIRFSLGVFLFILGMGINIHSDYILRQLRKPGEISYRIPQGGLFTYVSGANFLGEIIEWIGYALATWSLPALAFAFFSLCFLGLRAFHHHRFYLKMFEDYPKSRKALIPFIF

[2] = target: T2, 3-oxo-5-alpha-steroid 4-dehydrogenase 2 (Homo sapiens, UniProt P31213); assay: Inhibition of type-2 human steroid 5-alpha-reductase.; conditions: read-out: Ki app
T2 sequence (P31213 whole entry): T1 sequence (whole entry)

[3] = target: T3, 3-oxo-5-alpha-steroid 4-dehydrogenase 1 (Homo sapiens, UniProt P18405); assay: Inhibition of type-1 human steroid 5-alpha-reductase; conditions: read-out: Ki app
T3 sequence (P18405 whole entry): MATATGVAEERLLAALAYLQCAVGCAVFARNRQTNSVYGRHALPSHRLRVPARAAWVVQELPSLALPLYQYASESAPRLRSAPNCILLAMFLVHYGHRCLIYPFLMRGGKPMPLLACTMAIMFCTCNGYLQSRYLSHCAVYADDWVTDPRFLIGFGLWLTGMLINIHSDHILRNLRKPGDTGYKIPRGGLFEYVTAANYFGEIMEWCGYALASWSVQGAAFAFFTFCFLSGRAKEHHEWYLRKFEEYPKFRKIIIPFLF

[4] = target: T4, 3-oxo-5-alpha-steroid 4-dehydrogenase 1 (Homo sapiens) (UniProt P18405); assay: Inhibitory activity against type-1 human steroid 5-alpha-reductase at a concentration of 2.5 uM
T4 sequence (whole entry): T3 sequence (P18405 whole entry)

[5] = target: T2, 3-oxo-5-alpha-steroid 4-dehydrogenase 2; assay: Inhibitory activity against type-2 human steroid 5-alpha-reductase at a concentration of 1 uM: No inhibition
[6] = target: T1, 3-oxo-5-alpha-steroid 4-dehydrogenase 2 (Homo sapiens); conditions: 10 uM
Description: Inhibitory activity against type-2 human steroid 5-alpha-reductase at a concentration of 10 uM

[7] = target: T1, 3-oxo-5-alpha-steroid 4-dehydrogenase 2 (Homo sapiens); conditions: 20 uM
Description: Inhibitory activity against type-2 human steroid 5-alpha-reductase at a concentration of 20 uM

[8] = target: T3, 3-oxo-5-alpha-steroid 4-dehydrogenase 1; assay: Inhibitory activity against type-1 human steroid 5-alpha-reductase.
[9] = target: T2, 3-oxo-5-alpha-steroid 4-dehydrogenase 2; assay: Inhibitory activity against type-2 human steroid 5-alpha-reductase.
[10] = target: T2, 3-oxo-5-alpha-steroid 4-dehydrogenase 2; assay: (§1) Inhibitory activity against type-2 human steroid 5-alpha-reductase at a concentration of 1 uM; No inhibition
[11] = target: T2, 3-oxo-5-alpha-steroid 4-dehydrogenase 2; assay: as §1; remark: listed apart in the source

For O=C(O)c1ccc2c(c1)CCc1cc(Cl)ccc1-2, the inhibition [1] was 50%, the Ki [2] was 2500 nM and the Ki [3] was 320 nM.

With CC(C)(C)NC(=O)[C@H]1CC[C@H]2[C@@H]3CCc4cc(C(=O)O)ccc4[C@H]3CC[C@]12C the Ki [2] was 0.4 nM and the Ki [3] was 1600 nM.

With C[C@]12CCC([PH](=O)O)=CC1=CCc1cc(Cl)ccc12 the Ki [2] was 1600 nM and the Ki [3] was 1900 nM.

Compound CCN(CC)C(=O)[C@H]1CC[C@H]2[C@@H]3CC[C@H]4N(C)C(=O)CC[C@]4(C)[C@H]3CC[C@]12C has a Ki [2] of 2 nM and a Ki [3] of 3 nM.

With COc1cccc2c1CC[C@H]1C=C([N+](=O)[O-])CC[C@]21C the inhibition [4] was 10%, the Ki app [5] was “Not Active” and the Ki [3] was > 2500 nM.

O=C(O)c1ccc2c(c1)CCc1ccccc1-2 showed a Ki [2] of 10000 nM, a Ki [3] of 315 nM and an inhibition [6] of 20%.

Compound CC(C)(C)NC(=O)[C@H]1CCC2C3CC=C4C=C([PH](=O)O)CC[C@]4(C)C3CC[C@@]21C (some centres undefined) has a Ki [2] of 1.3 nM and a Ki [3] of 3200 nM.

For CC1=C2NCc3cc(Cl)ccc3[C@@]2(C)CCC1=O, the Ki [2] was 20000 nM, the Ki [3] was 920 nM and the inhibition [7] was 49%.

CC(C)CC(=O)[C@H]1CCC2C3CNC4=CC(=O)CC[C@]4(C)C3CC[C@@]21C (some centres undefined) was tested, and the Ki [2] was 0.08 nM.

O=C(O)c1ccc2c(c1)CCc1cc(Br)ccc1-2 showed a Ki [2] of 10000 nM and a Ki [3] of 26 nM.

CC(C)(C)NC(=O)[C@H]1CC[C@H]2[C@@H]3CC[C@H]4NC(=O)C=C[C@]4(C)[C@H]3CC[C@]12C [FINASTERIDE] was tested, and the IC50 [8] was 500 nM and the IC50 [9] was 4.2 nM.

With O=C(O)c1ccc2c(c1)Cc1ccccc1-2 the inhibition [4] was 30%, the Ki [2] was 10000 nM and the Ki [3] was > 2500 nM.

CC(C)N(C(=O)[C@H]1CCC2C3CC[C@H]4C=C([N+](=O)[O-])CC[C@]4(C)C3CC[C@@]21C)C(C)C (some centres undefined) showed a Ki [2] of 30 nM and a Ki [3] of 4200 nM.

C[C@]12CCC(C(=O)O)=CC1=CCc1cc(Cl)ccc12 showed a Ki [2] of 260 nM and a Ki [3] of 1200 nM.

For CN1C(=O)CC[C@]2(C)c3ccc(Cl)cc3CC[C@@H]12, the Ki app [10] was “Not Active” and the Ki app [11] was “Not Active”.
